This experiment has as its target T1, COX-2.
T1 construct: gene PTGS2; COX Activity Assay Kit (Cayman); species inferred from usual Cayman COX-2 (human recombinant; ovine possible); docking used PDB 3LN1
Nature of the experiment: COX peroxidase activity kit, TMPD oxidation at […] nm. The format is biochemical. The following applies: DMSO; triplicate.

With `O=C(C[C@H](O)C1(c2cccc(O)c2O)Oc2cccc3cccc(c23)O1)OC[C@H](O)CO` [compound 1, (8S)-(22R)-2,3-dihydroxypropyl-3-(2-(2,3-dihydroxyphenyl)naphtho[1,8-de][1,3]dioxin-2-yl)-3-hydroxypropanoate], the IC50 (commonly the concentration that gives 50% inhibition) was found to be 0.3 µM.

Values taken from publication PMC8619024, “COX Inhibitory and Cytotoxic Naphthoketal-Bearing Polyketides from Sparticola junci” (International Journal of Molecular Sciences, 2021).
